Tests used:
Bovine Brain MAO B = target: T1, Bovine Brain MAO B (Bos taurus, UniProt P56560); experiment: In vitro inhibition of MAO from bovine brain mitochondria, tyramine as substrate (form B); assay type: biochemical; set-up: key to Bovine Brain MAO, mark printed in place of a B value (nonselective): ns = nonselective; conditions: for IC50: pI50 = -log [I50], molar, bovine brain mitochondria, tyramine as substrate; for Bovine Brain MAO, mark printed in place of a B value (nonselective): one pI50 given, no separate A and B values
T1 construct: in vitro activity of MAO from bovine brain mitochondria; from tissue; host or cells: bovine brain mitochondria
T1 sequence (P56560 1-520): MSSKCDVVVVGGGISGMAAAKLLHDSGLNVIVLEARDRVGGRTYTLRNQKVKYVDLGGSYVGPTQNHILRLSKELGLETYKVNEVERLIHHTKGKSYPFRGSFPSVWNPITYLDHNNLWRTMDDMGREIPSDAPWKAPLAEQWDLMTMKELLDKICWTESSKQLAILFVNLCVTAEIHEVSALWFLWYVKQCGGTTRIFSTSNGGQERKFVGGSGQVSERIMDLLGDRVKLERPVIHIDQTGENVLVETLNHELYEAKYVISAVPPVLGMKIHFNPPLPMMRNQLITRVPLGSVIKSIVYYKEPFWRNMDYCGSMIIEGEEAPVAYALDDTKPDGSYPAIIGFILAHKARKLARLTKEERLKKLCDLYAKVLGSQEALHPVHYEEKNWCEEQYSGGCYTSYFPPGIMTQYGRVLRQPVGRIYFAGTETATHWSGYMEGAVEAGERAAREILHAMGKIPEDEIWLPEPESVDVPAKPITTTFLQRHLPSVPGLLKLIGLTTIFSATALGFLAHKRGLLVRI
From the text: (§1) The following table illustrates the structure of particular compounds of the invention (1). It also gives specific pI50 values where pI50 =-log [I50 ] where [I50 ] is the molar concentration of test compound which inhibits 50% of the in vitro activity of MAO from bovine brain mitochondria using tyramine as substrate.

Bovine Brain MAO A = target: T2, Bovine Brain MAO A (Bos taurus, UniProt P21398); experiment: In vitro inhibition of MAO from bovine brain mitochondria, tyramine as substrate (form A); assay type: biochemical; conditions: pI50 = -log [I50], molar
T2 construct: in vitro activity of MAO from bovine brain mitochondria; from tissue; host or cells: bovine brain mitochondria
T2 sequence (P21398 1-527): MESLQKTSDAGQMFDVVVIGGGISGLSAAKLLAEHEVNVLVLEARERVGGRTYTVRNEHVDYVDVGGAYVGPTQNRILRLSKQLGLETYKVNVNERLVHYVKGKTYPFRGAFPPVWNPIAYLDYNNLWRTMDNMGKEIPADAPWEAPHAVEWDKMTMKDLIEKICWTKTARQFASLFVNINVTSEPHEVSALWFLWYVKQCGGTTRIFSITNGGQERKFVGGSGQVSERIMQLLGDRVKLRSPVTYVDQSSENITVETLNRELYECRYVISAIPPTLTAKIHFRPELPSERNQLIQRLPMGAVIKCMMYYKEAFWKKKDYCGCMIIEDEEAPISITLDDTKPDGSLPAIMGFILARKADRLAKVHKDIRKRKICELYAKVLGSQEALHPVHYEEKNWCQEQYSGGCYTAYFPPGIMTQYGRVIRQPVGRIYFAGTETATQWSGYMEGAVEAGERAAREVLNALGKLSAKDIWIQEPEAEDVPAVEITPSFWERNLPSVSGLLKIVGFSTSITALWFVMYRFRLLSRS
From the text: as §1

rat uterus = conditions: Arch. Int. Pharmacodyn. 1961, 133, 138-158; cited from earlier work
rat cerebral MAO A and B = experiment: MAO inhibitory activity at the biochemical level (reversibility and selectivity)
From the text: To determine MAO inhibitory activity at the biochemical level the following tests are used:
1. "In vitro inhibition" of rat cerebral MAO A and B giving I50 values for the two forms of the enzyme. Male Wistar rats (200 g) were used. Brains were obtained by decapitation and were homogenized. As substrates of the enzymes ^14 C-5-hydroxytryptamine oxalate 54 mCi/mmol and ^14 C-β-phenylethylamine were used. The residual enzymatic activities were referred to the activities in absence of MAO inhibitor (100%).
2. "Ex vivo inhibition" of rat cerebral MAO A and B after single dosing.
This gives the degree of inhibition in vivo of both forms of the enzyme and variation of this inhibition with time after treatment with a single dose. The compounds were administered intraperitoneally to male Wistar rats (175 g.) at a dose of 5 mg/kg in 1 ml/kg (H2 O). Animals were sacrificed by decapitation 24 h. and 7 days after treatment and brains were removed and homogenized. Enzymatic activities determined in treated animals, were compared with the activities in control animals (100%).
3. "Ex vivo" inhibition of rat cerebral MAO A and B after repeated dosing.
Male Wistar rats (175 g) were used.
The compounds were administered once daily intraperitonally for 7 days at a dose of 0.5 and 1 mg/kg in 1 ml/kg […]. […]

[1] = system: reuptake of noradrenaline; experiment: Reuptake of noradrenaline in vitro, crude synaptosomal preparation; assay type: biochemical, rat
Description: Influence on the reuptake of monoamines "in vitro" was also studied. The effect of the compounds on the reuptake of 5-HT noradrenaline and dopamine was studied using Wistar male rats (350±2.5 g). They were kept under controlled light and temperature conditions and fed "ad libitum" until killed. The animals were killed by decapitation and brains were frozen and stored at -20° C. prior to analysis. Brains were dissected on an ice-filled petri dish. The cortices for 5-HT and noradrenaline assay and striatum (including caudate nucleus, putamen and globus pallidus) for dopamine assay were immediately weighed and homogenized. The standard incubation medium contained: 1.7 μM ^14 C-5-HT); 0.5μM ^3 H-noradrenaline or 1 μM ^3 H-dopamine with 0.1 ml of the crude synaptosomal preparation. All drugs used in the study were dissolved in the incubation medium in a concentration range 10^-4 to 10^-8 M and were preincubated with the crude synaptosomal preparation obtained from the treated brains, for 5 min. at 37° C. or 0° C. before the addition of the labelled substrate.

[2] = Behavioural Despair (Porsolt's test); assay type: in vivo; conditions: acute treatment; read-out: Porsolt's test MED, acute
Description: The pharmacological profile was carried out assessing the antidepressant activity with the following tests:
Behavioural Despair (Porsolt et al. Arch. Int. Pharmacodyn; 229:327-336, 1977),

[3] = Secondary effects on the cardiovascular system; conditions: in vivo
Description: (§2) The secondary effects were studied mainly on the cardiovascular system, and the effects on the arterial pressure, heart rate and rhythm, P-R interval and isolated organ (rabbit aortic rings and isolated atria), were evaluated both after acute and chronic treatments. In the same way, the "cheese effect" was studied by means of the tyramine potentiation.

[4] = Interaction with salbutamol-induced hypoactivity; assay type: in vivo
From the text: (§3) The action mechanism was studied in acute and chronic treatments on the interaction response with clonidine, salbutamol (Richard, J. Intern. J. Neuroscience, 9:17-19, 1979) and tetrabenazine (Pletscher, A.: An. N.Y. Aca. Sci. 80:1039-1045, 1959), and the response to the potentiation with L-dopa, L-tryptophan, tryptamine (Jalfre, M. et al., Arch. Int. Pharmacodyn, 159:194-221, 1982) and β-phenylethylamine (Ortmann, et al, Psychopharmacol. 84:22-27, 1984).

[5] = system: cerebral β-adrenergic receptors; experiment: Effects of chronic treatment on β receptors; assay type: in vivo; conditions: chronic administration in the rat
Description: Effects of chronic treatment on α2 -, β- and 5-HT2 receptors. The test compounds, at a dose of 10 mg/kg/day i.p., were administered for 21 days to Wistar male rats (250±2.4 g). After treatment the animals were killed, brains were dissected and cortices were scraped from the dorsal surface of the […]. ^3 H UK 14304, ^3 H Dihydroalprenalol and ^3 H Ketanserin were used as ligands in the binding studies.

[6] = "Cheese effect" by tyramine potentiation; conditions: in vivo
Description: as §2

[7] = Potentiation of β-phenylethylamine; assay type: in vivo; conditions: in vivo
From the text: as §3

Potentiation of 5-HT = assay type: in vivo; conditions: in vivo
[8] = Interaction with clonidine-induced hypoactivity; assay type: in vivo
From the text: as §3

| Structure (SMILES) | IC50 (Bovine Brain MAO B) | IC50 (Bovine Brain MAO A) | Bovine Brain MAO, mark printed in place of a B value (nonselective) (Bovine Brain MAO B) | further results |
| --- | --- | --- | --- | --- |
| CC#CCN(CC#CC)Cc1cc2cc(OC)ccc2[nH]1 [(e), N,N-bis(2-butynyl)-2-(5-methoxy-indolyl)methylamine] | > 20 µM | ≥ 20000 nM | – | – |
| C#CCN(CC#C)Cc1cc2cc(OC)ccc2n1C [(k), N,N-bis(propargyl)-2-(1-methyl-5-methoxy-indolyl)methylamine] | – | 2820 nM | ns | – |
| CC#CCN(C)Cc1cc2cc(OC)ccc2n1C [(o), N-(2-butynyl)-N-methyl-2-(1-methyl-5-methoxy-indolyl)methylamine] | – | 35.5 nM | ns | – |
| CC#CCNCc1cc2cc(OC)ccc2[nH]1 [(d), N-(2-butynyl)-2-(5-methoxy-indolyl)methylamine] | > 331 µM | 631 nM | – | – |
| COc1ccc2c(c1)cc(CN)n2C [(u), 2-(1-methyl-5-methoxy-indolyl)methylamine] | – | 18200 nM | ns | – |
| CNCc1cc2cc(OC)ccc2n1C [(v), N-methyl-2-(1-methyl-5-methoxy-indolyl)methylamine] | – | 129000 nM | ns | – |
| C=C=CCNCc1cc2cc(OC)ccc2[nH]1 [(g), N-(2,3-butadienyl)-2-(5-methoxy-indolyl)methylamine] | 2.51 µM | 44.7 nM | – | – |
| CC#CCN(CC#CC)Cc1cc2cc(OC)ccc2n1C [(n), N,N-bis(2-butynyl)-2-(1-methyl-5-methoxy-indolyl)methylamine] | > 501 µM | 3980 nM | – | – |
| C#CCN(C)Cc1cc2cc(OC)ccc2[nH]1 [(c), N-methyl-N-propargyl-2-(5-methoxy-indolyl)methylamine] | 0.447 µM | 7.08 nM | – | – |
| C#CCNCc1cc2cc(OC)ccc2n1C [(j), N-propargyl-2-(1-methyl-5-methoxy-indolyl)methylamine] | 44.7 µM | 20.9 nM | – | – |
| C=C=CCN(CC=C=C)Cc1cc2cc(OC)ccc2[nH]1 [(h), N,N-bis(2,3-butadienyl)-2-(5-methoxy-indolyl)methylamine] | – | 447 nM | ns | – |
| C=C=CCN(C)Cc1cc2cc(OC)ccc2n1C [(r), N-(2,3-butadienyl)-N-methyl-2-(1-methyl-5-methoxy-indolyl)-methylamine] | 0.501 µM | 5.37 nM | – | – |
| CNCc1cc2cc(OC)ccc2[nH]1 [(t), N-methyl-2-(5-methoxy-indolyl)methylamine] | > 100 µM | ≥ 100000 nM | – | Antagonistic activity on the rat uterus (rat uterus): a weak unspecific antagonistic activity |
| COc1ccc2[nH]c(CN)cc2c1 [(s), 2-(5-methoxy-indolyl)methylamine] | – | 50100 nM | ns | Type of MAO inhibition (reversibility, selectivity) (rat cerebral MAO A and B): reversible and mixed inhibitor of MAO; Effect on the reuptake of noradrenaline [1]: does not affect; minimal effective dose [2]: 25 mg/kg; Cardiovascular effects [3]: does not produce any significant cardiovascular effects; Hypoactivity induced by salbutamol, acute ([4]; acute treatment): does not do so; Hypoactivity induced by salbutamol, chronic ([4]; chronic treatment (10.2 mg/kg)): counteracts; Number or affinity of cerebral β-adrenergic receptors [5]: does not modify; "Cheese effect" [6]: no "cheese effect"; Activity in test of potentiation of β-phenylethylamine [7]: inactive; Activity in test of potentiation of 5-HT (Potentiation of 5-HT): inactive; Clonidine-induced hypoactivity, acute ([8]; acute (10.2 mg/kg)): no action; Clonidine-induced hypoactivity, chronic ([8]; chronic treatment (10.2 mg/kg) during 5 days): no action |
| C=C=CCN(C)Cc1cc2cc(OC)ccc2[nH]1 [(i), N-(2,3-butadienyl)-N-methyl-2-(5-methoxy-indolyl)methylamine] | 5.01 µM | 17.8 nM | – | – |
| CC#CCNCc1cc2cc(OC)ccc2n1C [(m), N-(2-butynyl)-2-(1-methyl-5-methoxy-indolyl)methylamine] | 79.4 µM | 129 nM | – | – |
| C=C=CCNCc1cc2cc(OC)ccc2n1C [(p), N-(2,3-butadienyl)-2-(1-methyl-5-methoxy-indolyl)methylamine] | 0.398 µM | 21.9 nM | – | – |
| C#CCNCc1cc2cc(OC)ccc2[nH]1 [(a), N-propargyl-2-(5-methoxy-indolyl)methylamine] | 110 µM | 219 nM | – | – |
| CC#CCN(C)Cc1cc2cc(OC)ccc2[nH]1 [(f), N-(2-butynyl)-N-methyl-2-(5-methoxy-indolyl)methylamine] | 12.9 µM | 8.91 nM | – | – |
| C=C=CCN(CC=C=C)Cc1cc2cc(OC)ccc2n1C [(q), N,N-bis(2,3-butadienyl)-2-(1-methyl-5-methoxy-indolyl)methylamine] | – | 302 nM | ns | – |

From patent US5130327A, “Indole derivatives” (Consejo Superior de Investigaciones Cientificas, priority 1989, dated 1992)
